Experimental data: ChEMBL document CHEMBL4130363, “Synthesis and pharmacological evaluation of benzamide derivatives as potent and selective sigma-1 protein ligands” (Eur J Med Chem, 2017)

Assays:
Type in all cases: functional
[1] = biological target: T1, Muscarinic acetylcholine receptor M2 (Homo sapiens) (UniProt P08172); assay: Agonist activity at recombinant human muscarinic M2 receptor at 10 uM by GTPgamma[35S] binding-based assay relative to agonist
T1 sequence (whole entry): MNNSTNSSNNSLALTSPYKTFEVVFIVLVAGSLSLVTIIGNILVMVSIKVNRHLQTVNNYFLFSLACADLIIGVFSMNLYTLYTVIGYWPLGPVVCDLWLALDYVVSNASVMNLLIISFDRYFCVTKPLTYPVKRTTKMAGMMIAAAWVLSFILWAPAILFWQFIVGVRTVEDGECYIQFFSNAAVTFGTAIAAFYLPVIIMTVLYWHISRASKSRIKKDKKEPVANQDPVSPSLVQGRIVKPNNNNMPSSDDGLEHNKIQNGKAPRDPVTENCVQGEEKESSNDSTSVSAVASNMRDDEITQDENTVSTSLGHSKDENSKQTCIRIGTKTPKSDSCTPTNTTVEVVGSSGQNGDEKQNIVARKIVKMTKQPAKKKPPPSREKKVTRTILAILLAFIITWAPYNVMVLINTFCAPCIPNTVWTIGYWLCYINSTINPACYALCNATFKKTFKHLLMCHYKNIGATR

[2] = biological target: 5-hydroxytryptamine receptor 1B (Homo sapiens) (UniProt P28222); assay: Antagonist activity at recombinant human 5-HT1B assessed as inhibition of agonist-induced effect at 10 uM by GTPgamma[35S] binding-based assay
[3] = biological target: Vasopressin V1a receptor (Homo sapiens) (UniProt P37288); assay: Agonist activity at recombinant human V1A receptor at 10 uM by aequorin reporter based assay relative to agonist
[4] = biological target: Histamine H2 receptor (Homo sapiens) (UniProt P25021); assay: Agonist activity at recombinant human histamine H2 receptor assessed as induction of cAMP levels at 10 uM by HTRF assay relative to agonist
[5] = biological target: 5-hydroxytryptamine receptor 7 (Homo sapiens) (UniProt P34969); assay: Agonist activity at recombinant human 5-HT7R assessed as induction of cAMP levels at 10 uM by HTRF assay relative to agonist
[6] = biological target: Kappa-type opioid receptor (Homo sapiens) (UniProt P41145); assay: Antagonist activity at human kappa-type opioid receptor assessed as inhibition of agonist-induced effect at 10 uM by GTPgamma[35S] binding-based assay
[7] = biological target: 5-hydroxytryptamine receptor 5A (Homo sapiens) (UniProt P47898); assay: Agonist activity at recombinant human 5-HT5A at 10 uM by aequorin reporter based assay relative to agonist
[8] = biological target: T2, Neuropeptide Y receptor type 1 (Homo sapiens) (UniProt P25929); assay: Agonist activity at recombinant human NPY1R assessed as induction of cAMP levels at 10 uM by HTRF assay relative to agonist
T2 sequence (whole entry): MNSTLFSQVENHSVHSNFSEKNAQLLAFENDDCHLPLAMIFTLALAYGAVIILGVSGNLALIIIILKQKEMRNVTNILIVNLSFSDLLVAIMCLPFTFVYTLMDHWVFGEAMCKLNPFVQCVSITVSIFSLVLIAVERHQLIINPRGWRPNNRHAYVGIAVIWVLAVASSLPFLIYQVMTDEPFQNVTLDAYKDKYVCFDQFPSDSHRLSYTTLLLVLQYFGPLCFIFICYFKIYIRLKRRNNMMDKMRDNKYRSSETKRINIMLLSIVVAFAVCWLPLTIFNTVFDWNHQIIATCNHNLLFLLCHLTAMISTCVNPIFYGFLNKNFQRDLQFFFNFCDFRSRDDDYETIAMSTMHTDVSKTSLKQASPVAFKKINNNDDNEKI

[9] = biological target: T3, Muscarinic acetylcholine receptor M1 (Homo sapiens) (UniProt P11229); assay: Antagonist activity at recombinant human muscarinic M1 receptor assessed as inhibition of agonist-induced effect at 10 uM by aequorin reporter based assay
T3 sequence (whole entry): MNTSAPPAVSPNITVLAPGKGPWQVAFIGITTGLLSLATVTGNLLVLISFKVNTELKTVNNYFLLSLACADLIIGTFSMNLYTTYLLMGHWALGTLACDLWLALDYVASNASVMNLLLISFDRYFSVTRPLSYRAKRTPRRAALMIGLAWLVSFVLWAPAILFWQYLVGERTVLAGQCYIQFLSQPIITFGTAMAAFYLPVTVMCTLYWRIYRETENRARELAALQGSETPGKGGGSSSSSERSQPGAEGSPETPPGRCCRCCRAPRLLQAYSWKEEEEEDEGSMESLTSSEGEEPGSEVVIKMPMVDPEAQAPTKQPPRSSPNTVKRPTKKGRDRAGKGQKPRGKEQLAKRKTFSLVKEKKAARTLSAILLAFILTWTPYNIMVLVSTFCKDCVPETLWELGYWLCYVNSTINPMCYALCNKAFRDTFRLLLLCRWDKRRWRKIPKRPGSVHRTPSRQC

[10] = biological target: T4, Alpha-1B adrenergic receptor (Homo sapiens) (UniProt P35368); assay: Antagonist activity at recombinant human alpha-1b adrenergic receptor assessed as inhibition of agonist-induced […] reporter based assay
T4 sequence (whole entry): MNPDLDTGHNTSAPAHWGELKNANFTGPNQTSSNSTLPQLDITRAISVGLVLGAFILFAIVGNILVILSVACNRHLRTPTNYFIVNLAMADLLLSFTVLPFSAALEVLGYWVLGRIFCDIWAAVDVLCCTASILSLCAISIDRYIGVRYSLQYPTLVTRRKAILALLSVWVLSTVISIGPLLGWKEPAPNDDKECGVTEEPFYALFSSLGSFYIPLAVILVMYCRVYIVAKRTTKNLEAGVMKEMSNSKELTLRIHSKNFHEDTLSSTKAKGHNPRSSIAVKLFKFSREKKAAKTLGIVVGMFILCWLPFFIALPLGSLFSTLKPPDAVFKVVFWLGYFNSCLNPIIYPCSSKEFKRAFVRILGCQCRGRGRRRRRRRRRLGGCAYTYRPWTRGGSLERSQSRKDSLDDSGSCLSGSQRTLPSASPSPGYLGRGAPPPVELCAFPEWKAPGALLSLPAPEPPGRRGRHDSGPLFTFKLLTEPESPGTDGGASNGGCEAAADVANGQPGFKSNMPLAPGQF

[11] = biological target: Substance-P receptor (Homo sapiens) (UniProt P25103); assay: Antagonist activity at recombinant human NK1R assessed as inhibition of agonist-induced effect at 10 uM by aequorin reporter based assay
Chain of Substance-P receptor (Homo sapiens) (P25103 whole entry): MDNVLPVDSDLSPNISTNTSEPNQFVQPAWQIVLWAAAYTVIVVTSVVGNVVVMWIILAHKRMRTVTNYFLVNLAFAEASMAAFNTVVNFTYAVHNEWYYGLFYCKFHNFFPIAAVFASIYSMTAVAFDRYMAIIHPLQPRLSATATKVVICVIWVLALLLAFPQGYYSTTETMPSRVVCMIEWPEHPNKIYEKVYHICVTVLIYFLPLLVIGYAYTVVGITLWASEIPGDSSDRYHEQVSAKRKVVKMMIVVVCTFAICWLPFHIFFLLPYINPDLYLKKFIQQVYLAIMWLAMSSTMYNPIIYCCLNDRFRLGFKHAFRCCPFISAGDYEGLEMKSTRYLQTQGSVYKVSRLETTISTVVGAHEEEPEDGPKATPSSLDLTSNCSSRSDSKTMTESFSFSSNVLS

Chain of 5-hydroxytryptamine receptor 5A (Homo sapiens) (P47898 whole entry): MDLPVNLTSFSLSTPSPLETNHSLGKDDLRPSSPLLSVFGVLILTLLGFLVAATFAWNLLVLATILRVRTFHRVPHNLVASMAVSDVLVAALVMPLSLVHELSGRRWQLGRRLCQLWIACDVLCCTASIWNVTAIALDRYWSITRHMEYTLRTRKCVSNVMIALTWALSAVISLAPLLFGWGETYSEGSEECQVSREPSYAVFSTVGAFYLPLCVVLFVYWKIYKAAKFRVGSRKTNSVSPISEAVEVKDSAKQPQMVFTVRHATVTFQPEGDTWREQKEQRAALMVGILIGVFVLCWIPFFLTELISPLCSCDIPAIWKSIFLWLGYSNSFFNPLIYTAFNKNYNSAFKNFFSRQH
Chain of 5-hydroxytryptamine receptor 1B (Homo sapiens) (P28222 whole entry): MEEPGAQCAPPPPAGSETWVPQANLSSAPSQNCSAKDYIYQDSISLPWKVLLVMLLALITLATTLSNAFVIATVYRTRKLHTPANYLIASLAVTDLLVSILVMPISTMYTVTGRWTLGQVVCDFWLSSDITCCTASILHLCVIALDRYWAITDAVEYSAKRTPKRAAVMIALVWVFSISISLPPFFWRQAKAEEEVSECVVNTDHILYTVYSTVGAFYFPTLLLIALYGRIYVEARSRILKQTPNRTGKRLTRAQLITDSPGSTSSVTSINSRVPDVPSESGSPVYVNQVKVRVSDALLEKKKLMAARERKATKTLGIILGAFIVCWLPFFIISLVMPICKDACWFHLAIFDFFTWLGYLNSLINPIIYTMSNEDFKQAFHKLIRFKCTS
Chain of Vasopressin V1a receptor (Homo sapiens) (P37288 whole entry, looked up): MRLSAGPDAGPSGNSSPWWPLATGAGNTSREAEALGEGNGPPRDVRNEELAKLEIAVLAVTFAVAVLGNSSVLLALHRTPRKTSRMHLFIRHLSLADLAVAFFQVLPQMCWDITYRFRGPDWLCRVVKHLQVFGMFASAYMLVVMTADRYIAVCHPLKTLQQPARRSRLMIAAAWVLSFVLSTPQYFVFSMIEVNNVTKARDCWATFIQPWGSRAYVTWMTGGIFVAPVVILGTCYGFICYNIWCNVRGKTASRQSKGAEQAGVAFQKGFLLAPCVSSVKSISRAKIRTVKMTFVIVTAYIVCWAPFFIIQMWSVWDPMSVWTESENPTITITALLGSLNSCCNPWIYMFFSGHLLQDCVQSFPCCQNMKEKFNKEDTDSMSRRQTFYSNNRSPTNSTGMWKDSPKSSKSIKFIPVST
Chain of Kappa-type opioid receptor (Homo sapiens) (P41145 whole entry): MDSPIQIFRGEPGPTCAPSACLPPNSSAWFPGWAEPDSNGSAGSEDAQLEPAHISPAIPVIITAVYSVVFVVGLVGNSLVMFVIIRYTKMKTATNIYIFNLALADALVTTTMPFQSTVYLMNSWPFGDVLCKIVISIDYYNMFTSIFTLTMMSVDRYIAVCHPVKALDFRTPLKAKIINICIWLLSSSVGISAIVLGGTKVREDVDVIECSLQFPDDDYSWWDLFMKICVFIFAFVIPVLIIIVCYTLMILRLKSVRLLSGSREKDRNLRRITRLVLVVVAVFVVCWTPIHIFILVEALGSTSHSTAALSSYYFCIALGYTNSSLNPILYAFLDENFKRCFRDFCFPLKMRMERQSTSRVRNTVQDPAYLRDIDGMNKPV
Chain of 5-hydroxytryptamine receptor 7 (Homo sapiens) (P34969 whole entry): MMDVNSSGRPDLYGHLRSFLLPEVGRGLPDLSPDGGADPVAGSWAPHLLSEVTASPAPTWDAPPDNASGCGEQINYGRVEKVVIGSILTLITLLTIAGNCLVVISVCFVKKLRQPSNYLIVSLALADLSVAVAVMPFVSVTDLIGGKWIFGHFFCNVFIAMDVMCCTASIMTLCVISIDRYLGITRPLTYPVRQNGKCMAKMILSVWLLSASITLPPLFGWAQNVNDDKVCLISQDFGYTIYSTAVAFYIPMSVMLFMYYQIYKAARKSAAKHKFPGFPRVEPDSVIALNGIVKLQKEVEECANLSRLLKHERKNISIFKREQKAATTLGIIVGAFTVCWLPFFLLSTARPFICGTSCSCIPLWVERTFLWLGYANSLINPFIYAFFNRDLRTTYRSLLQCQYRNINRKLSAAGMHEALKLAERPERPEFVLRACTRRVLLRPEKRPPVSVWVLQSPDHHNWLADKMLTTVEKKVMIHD
Chain of Histamine H2 receptor (Homo sapiens) (P25021 whole entry): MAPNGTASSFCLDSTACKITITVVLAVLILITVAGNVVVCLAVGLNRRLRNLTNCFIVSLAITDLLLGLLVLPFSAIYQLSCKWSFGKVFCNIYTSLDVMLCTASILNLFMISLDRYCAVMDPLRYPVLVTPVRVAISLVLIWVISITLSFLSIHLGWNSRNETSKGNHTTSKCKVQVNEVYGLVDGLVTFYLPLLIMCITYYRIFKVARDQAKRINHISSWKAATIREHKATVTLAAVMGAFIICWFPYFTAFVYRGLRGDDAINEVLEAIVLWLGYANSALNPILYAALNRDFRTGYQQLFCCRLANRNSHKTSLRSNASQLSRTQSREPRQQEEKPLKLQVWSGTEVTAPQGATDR

`CN(CCCNC(=O)c1ccc(Cl)cc1)CCc1ccccc1` was tested, and the Activity [1] was -10%, the inhibition [2] was 65% and the Activity [3] was 0%. The Activity [4] was 15%, the Activity [5] was 130% and the inhibition [6] was 26%. For the same compound, the Activity [7] was 0%, the Activity [8] was -4% and the inhibition [9] was 86%. The inhibition [10] was 98% and the inhibition [11] was 41%.
In the case of `CN(CCNC(=O)c1ccc(C#N)cc1)Cc1ccccc1`, the Activity [1] is reported as -3%, the inhibition [2] is reported as 17% and the Activity [3] is reported as 0%. For the same compound, the Activity [4] was -3%, the Activity [5] was 2% and the inhibition [6] was 9%. It also gave an Activity [7] of -7%, an Activity [8] of 4% and an inhibition [9] of 6%. For the same compound, the inhibition [10] was 89% and the inhibition [11] was 14%.
Work on `CN(CCCNC(=O)c1cccc(Br)c1)Cc1ccccc1` yielded an Activity [1] of -11%, an inhibition [2] of 35% and an Activity [3] of -1%. The Activity [4] was -3%, the Activity [5] was 21% and the inhibition [6] was 26%. The Activity [7] was -1%, the Activity [8] was 1% and the inhibition [9] was 96%. It also gave an inhibition [10] of 97% and an inhibition [11] of 58%.
`COc1cccc(C(=O)NCCCN(C)Cc2ccccc2)c1` was tested, and the Activity [1] was -1%, the inhibition [2] was 13% and the Activity [3] was 0%. It also gave an Activity [4] of 10%, an Activity [5] of -5% and an inhibition [6] of 4%. It also gave an Activity [7] of -3%, an Activity [8] of 0% and an inhibition [9] of 34%. The inhibition [10] was 56% and the inhibition [11] was 10%.
`CN(CCNC(=O)c1ccc(Cl)cc1)Cc1ccccc1` was tested, and the Activity [1] was -5%, the inhibition [2] was 1% and the Activity [3] was 0%. It also gave an Activity [4] of -7%, an Activity [5] of 46% and an inhibition [6] of 40%. For the same compound, the Activity [7] was -1%, the Activity [8] was -2% and the inhibition [9] was 69%. It also gave an inhibition [10] of 96% and an inhibition [11] of 22%.
`CN(CCNC(=O)c1ccc([N+](=O)[O-])cc1)Cc1ccccc1` was tested, and the Activity [1] was -1%, the inhibition [2] was 7% and the Activity [3] was 0%. For the same compound, the Activity [4] was 9%, the Activity [5] was 26% and the inhibition [6] was 23%. It also gave an Activity [7] of -9%, an Activity [8] of 3% and an inhibition [9] of 31%. For the same compound, the inhibition [10] was 84% and the inhibition [11] was 18%.
For `CN(CCCNC(=O)c1ccc(Br)cc1)Cc1ccccc1`, the Activity [1] was -3%, the inhibition [2] was 0% and the Activity [3] was 1%. The Activity [4] was -8%, the Activity [5] was 9% and the inhibition [6] was 22%. The Activity [7] was 1%, the Activity [8] was 5% and the inhibition [9] was 89%. The inhibition [10] was 81% and the inhibition [11] was 4%.
`CN(CCCNC(=O)c1ccc(C(F)(F)F)cc1)Cc1ccccc1` showed an Activity [1] of -9%, an inhibition [2] of 11% and an Activity [3] of 0%. For the same compound, the Activity [4] was -7%, the Activity [5] was 33% and the inhibition [6] was 28%. The Activity [7] was -1%, the Activity [8] was 9% and the inhibition [9] was 88%. The inhibition [10] was 70% and the inhibition [11] was 33%.
For `COc1ccc(C(=O)NCCCN(C)Cc2ccccc2)cc1`, the Activity [1] was -3%, the inhibition [2] was 18% and the Activity [3] was 0%. It also gave an Activity [4] of 9%, an Activity [5] of -1% and an inhibition [6] of 23%. For the same compound, the Activity [7] was -5%, the Activity [8] was 1% and the inhibition [9] was 20%. For the same compound, the inhibition [10] was 39% and the inhibition [11] was 4%.
Compound `CN(CCCNC(=O)c1ccc(Cl)cc1)Cc1ccccc1` has an Activity [1] of -9%, an inhibition [2] of 11% and an Activity [3] of 1%. For the same compound, the Activity [4] was -10%, the Activity [5] was 19% and the inhibition [6] was 24%. For the same compound, the Activity [7] was 0%, the Activity [8] was 2% and the inhibition [9] was 89%. It also gave an inhibition [10] of 73% and an inhibition [11] of 3%.
In the case of `CCCc1ccc(C(=O)NCCCN(C)Cc2ccccc2)cc1`, the Activity [1] is reported as -9%, the inhibition [2] is reported as -8% and the Activity [3] is reported as 0%. The Activity [4] was 1%, the Activity [5] was 25% and the inhibition [6] was 26%. It also gave an Activity [7] of 0%, an Activity [8] of 2% and an inhibition [9] of 98%. The inhibition [10] was 72% and the inhibition [11] was 34%.
Compound `CN(CCCNC(=O)c1ccc([N+](=O)[O-])cc1)Cc1ccccc1` has an Activity [1] of -6%, an inhibition [2] of 4% and an Activity [3] of -1%. The Activity [4] was -7%, the Activity [5] was 33% and the inhibition [6] was 21%. The Activity [7] was -1%, the Activity [8] was 1% and the inhibition [9] was 85%. It also gave an inhibition [10] of 63% and an inhibition [11] of 21%.
